For 21 molecules, T/C results are on record in PubChem BioAssay AID256 (DTP/NCI, 2004).

The subject of this test is CD2F1 mice, L1210 leukemia ip, survival T/C. Kind of test: NCI In Vivo Anticancer Drug Screen. Data for tumor model L1210 Leukemia (intraperitoneal) in CD2F1 (CDF1) mice. To be noted: endpoint: mean survival time, higher = longer survival. The essentials: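 Implant tumor; dose compound or vehicle; measure endpoint in both groups; report treated divided by control.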
Where [1] appears, read: dose: 100.0 mg/kg/injection, schedule: Q01DX009 (ip), vehicle: saline with Tween-80.
Setting [2] is: dose: 100.0 mg/kg/injection, schedule: Q04DX003 (ip), vehicle: saline with Tween-80.
The mark [3] stands for this setting: dose: 200.0 mg/kg/injection, schedule: Q01DX009 (ip), vehicle: saline with Tween-80.
[4] abbreviates: dose: 200.0 mg/kg/injection, schedule: Q04DX003 (ip), vehicle: saline with Tween-80.
Setting [5] is: dose: 400.0 mg/kg/injection, schedule: Q01DX009 (ip), vehicle: saline with Tween-80.
The mark [6] stands for this setting: dose: 400.0 mg/kg/injection, schedule: Q04DX003 (ip), vehicle: saline with Tween-80.
The mark [7] stands for this setting: dose: 100.0 mg/kg/injection, schedule: Q01DX001 (ip), vehicle: saline with Tween-80.
The mark [8] stands for this setting: dose: 200.0 mg/kg/injection, schedule: Q01DX001 (ip), vehicle: saline with Tween-80.
[9] abbreviates: dose: 400.0 mg/kg/injection, schedule: Q01DX001 (ip), vehicle: saline with Tween-80.
[10] abbreviates: dose: 100.0 mg/kg/injection, schedule: Q04DX003 (ip), vehicle: saline.
Setting [11] is: dose: 200.0 mg/kg/injection, schedule: Q04DX003 (ip), vehicle: saline.
Setting [12] is: dose: 400.0 mg/kg/injection, schedule: Q04DX003 (ip), vehicle: saline.
The mark [13] stands for this setting: dose: 100.0 mg/kg/injection, schedule: Q01DX001 (ip), vehicle: saline.
The mark [14] stands for this setting: dose: 200.0 mg/kg/injection, schedule: Q01DX001 (ip), vehicle: saline.

Values joined by “and” are separate entries in the source; they are usually repeats but may differ in a detail not shown here. Identical values can stand only once. Inconclusive results and toxic doses are left out.

As to `CC(C)c1ccccc1OS(=O)(=O)c1cccc([N+](=O)[O-])c1`, the T/C under setting [1] is 98 % of control; the T/C under setting [2] is 100 % of control; the T/C under setting [3] is 100 % of control; the T/C under setting [4] is 99 % of control; the T/C under setting [5] was 100 % of control; the T/C under setting [6] was 106 % of control.

On to `CC(=O)[CH-]C(C)=O.CC(=O)[CH-]C(C)=O.CC(N)CN.[Ni+2]`, for which the T/C (dose: 50.0 mg/kg/injection, schedule: Q01DX009 (ip), vehicle: other) is 100 % of control.

Take `O=S(=O)(O)c1ccccc1O`: the T/C (dose: 100.0 mg/kg/injection, schedule: Q01DX009 (ip), vehicle: saline) is 101 % of control.

With `OCC(O)C1OC(c2ccccc2)OC(CO)C1O` (stereo not drawn), the T/C runs as follows: (dose: 100.0 mg/kg/injection, schedule: Q04DX003 (ip), vehicle: saline + alcohol) 106 % of control; (dose: 200.0 mg/kg/injection, schedule: Q04DX003 (ip), vehicle: saline + alcohol) 100 % of control; (dose: 400.0 mg/kg/injection, schedule: Q04DX003 (ip), vehicle: saline + alcohol) 95 % of control.

On to `CCOC(=O)C(C)CN(CC(C)C(=O)OCC)C(C)(C)C` (stereo not drawn), for which the T/C reads like this: under setting [7], 112 % of control; under setting [8], 100 % of control.

In the case of `OCC1OC(Nc2ncnc3nc[nH]c23)C(O)C1O` (stereo not drawn), the T/C under setting [7] was 108 % of control; the T/C under setting [1] is 96 % of control; the T/C under setting [8] was 94 % of control; the T/C under setting [3] is 108 % of control; the T/C under setting [9] is 92 % of control; the T/C under setting [5] is 100 % of control.

`C1CC2CNC1CN2`: the T/C is 96 % of control under setting [10], 98 % of control under setting [11] and 94 % of control under setting [12].

Regarding `CSc1nnnn1-c1ccccc1`, the T/C (dose: 50.0 mg/kg/injection, schedule: Q01DX009 (ip), vehicle: Klucel (hydroxypropylcellulose) (HPC)) was 111 % of control and the T/C (dose: 100.0 mg/kg/injection, schedule: Q01DX009 (ip), vehicle: Klucel (hydroxypropylcellulose) (HPC)) is 104 % of control.

Turning to `COc1cc(C(=O)N2CC3CCC(CC3)C2)cc(OC)c1OC`, the T/C reads like this: under setting [2], 93 % of control; under setting [4], 96 % of control; under setting [6], 96 % of control.

Turning to `CC(=O)OC1C2(CC3N4C(=O)C5(CO)SSC4(CC31O)C(=O)N5C)OC(C)C(C)(C)C2=O` (stereo not drawn), the T/C was 101 % of control (dose: 0.15 mg/kg/injection, schedule: Q01DX009 (ip), vehicle: saline); 97 % of control (dose: 0.16 mg/kg/injection, schedule: Q01DX009 (ip), vehicle: saline with Tween-80); 101 % of control (dose: 0.31 mg/kg/injection, schedule: Q01DX009 (ip), vehicle: saline with Tween-80); 100 % of control (dose: 0.31 mg/kg/injection, schedule: Q01DX009 (ip), vehicle: saline); 100 % of control (dose: 0.62 mg/kg/injection, schedule: Q01DX009 (ip), vehicle: saline); 101 % of control (dose: 0.63 mg/kg/injection, schedule: Q01DX009 (ip), vehicle: saline with Tween-80). Also, the T/C runs as follows: (dose: 1.25 mg/kg/injection, schedule: Q01DX009 (ip), vehicle: saline) 120 % of control and 98 % of control and 100 % of control; (dose: 2.5 mg/kg/injection, schedule: Q01DX009 (ip), vehicle: saline with Tween-80) 98 % of control; (dose: 2.5 mg/kg/injection, schedule: Q01DX009 (ip), vehicle: saline) 107 % of control.

Turning to `CC(C)N1CCC1C(=O)O` (stereo not drawn), the T/C runs as follows: (dose: 100.0 mg/kg/injection, schedule: Q01DX009 (ip), vehicle: saline sonified) 97 % of control; (dose: 200.0 mg/kg/injection, schedule: Q01DX009 (ip), vehicle: saline sonified) 105 % of control; (dose: 400.0 mg/kg/injection, schedule: Q01DX009 (ip), vehicle: saline sonified) 97 % of control.

`COc1ccc2c(c1)C1(C)CCCC(C#N)C1CC2` (stereo not drawn): the T/C runs as follows: under setting [13], 101 % of control; under setting [14], 96 % of control; (dose: 400.0 mg/kg/injection, schedule: Q01DX001 (ip), vehicle: saline) 94 % of control.

On to `CN(N=O)C(=O)NC1C(CO)OC2OC(C)(C)OC21` (stereo not drawn), for which the T/C (dose: 100.0 mg/kg/injection, schedule: Q04DX003 (ip), vehicle: saline sonified) is 94 % of control; the T/C (dose: 132.0 mg/kg/injection, schedule: Q01DX009 (ip), vehicle: saline) was 151 % of control; the T/C (dose: 200.0 mg/kg/injection, schedule: Q01DX009 (ip), vehicle: saline) was 198 % of control; the T/C (dose: 200.0 mg/kg/injection, schedule: Q04DX003 (ip), vehicle: saline sonified) is 100 % of control; the T/C (dose: 300.0 mg/kg/injection, schedule: Q01DX009 (ip), vehicle: saline) was 105 % of control; the T/C (dose: 400.0 mg/kg/injection, schedule: Q04DX003 (ip), vehicle: saline sonified) is 107 % of control.

`O/N=C/c1ccc[nH]1`: the T/C by setting is: under setting [2], 96 % of control; under setting [4], 96 % of control; under setting [6], 96 % of control.

In the case of `CC1(C)SC2C(NC(=O)Cc3ccccc3)C(=O)N2C1C(=O)O` (stereo not drawn), the T/C is, setting by setting: (dose: 25.0 mg/kg/injection, schedule: Q01DX001 (ip), vehicle: saline) 97 % of control; (dose: 25.0 mg/kg/injection, schedule: Q04DX002 (ip), vehicle: saline) 97 % of control; (dose: 50.0 mg/kg/injection, schedule: Q01DX001 (ip), vehicle: saline) 100 % of control; (dose: 50.0 mg/kg/injection, schedule: Q04DX002 (ip), vehicle: saline) 100 % of control; under setting [13], 100 % of control and 102 % of control; (dose: 100.0 mg/kg/injection, schedule: Q04DX002 (ip), vehicle: saline) 97 % of control and 100 % of control. In addition, the T/C was 104 % of control (dose: 200.0 mg/kg/injection, schedule: Q01DX001 (ip), vehicle: carboxymethylcellulose (CMC)); 97 % of control and 100 % of control under setting [14]; 102 % of control and 104 % of control (dose: 200.0 mg/kg/injection, schedule: Q04DX002 (ip), vehicle: saline); 100 % of control (dose: 400.0 mg/kg/injection, schedule: Q01DX001 (ip), vehicle: carboxymethylcellulose (CMC)).

As to `CC(=O)OC/C(=N\Nc1ccc([N+](=O)[O-])cc1[N+](=O)[O-])c1ccccc1`, the T/C (dose: 3.13 mg/kg/injection, schedule: Q01DX001 (ip), vehicle: saline with Tween-80) was 107 % of control; the T/C (dose: 6.25 mg/kg/injection, schedule: Q01DX001 (ip), vehicle: saline with Tween-80) is 94 % of control; the T/C under setting [7] was 86 % of control; the T/C under setting [9] is 90 % of control.

With `CCC(C)(O)c1ccccc1` (stereo not drawn), the T/C (dose: 50.0 mg/kg/injection, schedule: Q01DX009 (ip), vehicle: saline with Tween-80) is 103 % of control; the T/C under setting [1] was 100 % of control; the T/C under setting [3] is 95 % of control.

Consider `O=C(O)CCC(=O)NO`, for which the T/C by setting is: under setting [10], 109 % of control; under setting [11], 109 % of control; under setting [12], 109 % of control.

As to `NS(=O)(=O)c1ccc(NC(=O)/C=C/C(=O)O)cc1`, the T/C was 101 % of control under setting [10], 97 % of control under setting [11] and 97 % of control under setting [12].

As to `CC(=O)CCc1ccc(O)cc1`, the T/C is, setting by setting: under setting [1], 94 % of control; under setting [2], 97 % of control; under setting [3], 93 % of control; under setting [4], 92 % of control; under setting [5], 94 % of control; under setting [6], 92 % of control.

As to `COC(=O)C1CC2C(=O)CCCCCCC2C1O` (stereo not drawn), the T/C was 93 % of control under setting [7], 101 % of control under setting [8] and 98 % of control under setting [9].
